From patent US20230365585A1, “BENZODIAZEPINE DERIVATIVES USEFUL IN TREATING A RESPIRATORY SYNCYTIAL VIRUS INFECTION” (priority 2020, published 2023) come the findings set out here.

Data set [1] concerns RSV A2. Kind of data set: RSV plaque reduction assay. Type of data set: cell-based, RSV (RSV A2 ECACC, 0709161v). The following applies: Hep-G2 cells, RSV A2, 2 days, mean of at least two experiments. As to the method: Compounds were subjected to RSV plaque reduction assays according to the following protocol.
Hep-G2 cells (ECACC, 85011430) were passaged in flasks and seeded in 24-well plates in DMEM containing antibiotics and supplemented with 10% FBS. During inoculation and subsequent incubation, cells were cultured in DMEM containing 2% FBS. 100 plaque forming unit/well of RSV (RSV A2 ECACC, 0709161v) was mixed with eight serial dilutions of compound. Subsequently, 100 µL of the virus/compound mixtures was added to confluent Hep-G2 cell monolayers. The cells and virus/compound mixtures were incubated at 37° C. in a humidified 5% CO2 incubator for 2 h prior to removal of the inoculum and addition of 1 mL of overlay (DMEM containing 2% FBS and 0.8% CMC) containing compound dilutions. The cells and were incubated at 37° C. in a humidified 5% CO2 incubator for 2 days.
Cells were washed with PBS before adding 75%/25% v/v EtOH/MeOH, for 3 min. Fix ative was removed and plates were washed with PBS. A pre-titrated amount of the primary antibody was added in 200 µL PBS/2% milk powder, and plates incubated for 90 min at 37° C. The plates were washed 3 times with PBS/0.05% Tween20 before addition of rabbit anti-goat horse radish peroxidase in 200 µL PBS/2% milk powder, and incubated for 1 h at 37° C. Following three wash steps with PBS/0.05% Tween20, 200 µL ready-to-use TrueBlue was added and plates were incubated at rt for 10-15 min before washing with water. After removal of water, plates were air-dried in the dark.
(§1) Plates were scanned and analysed using the Immunospot S6 Macro analyser, which is equipped with BioSpot analysis software for counting immunostained plaques (virospots). Plaque counts were used to calculate % infection relative to the mean of the plaque count in the virus control wells for RSV. […] Plaque EC50 and cell toxicity CC50 values are a mean of at least two experiments and figures are rounded to whole units.

For data set [2], the system named is Hep-G2 cells. The data set can be described thus: Cell cytotoxicity CC50. Type of data set: cell-based. The following applies: mean of at least two experiments.
From the text: as §1

Data set [3] can be described thus: Cell cytotoxicity CC50. The data set is classed as cell-based. The following applies: human; mean of at least two experiments.
From the text: as §1

Setting [4] is: human respiratory syncytial virus, HepG2, 48 h.

“2-(2,4-Difluorophenyl)-5-methyl-N-[(3S)-2-oxo-5-phenyl-1,3-dihydro-1,4-benzodiazepin-3-yl]-5,6,7,8-tetrahydropyrazolo[5,1-b][1,3]oxazepine-3-carboxamide [Example 16]” yielded an EC50 in data set [1] of 64 nM. The compound further gave a CC50 in data set [2] of over 25000 nM.
In the same order, the values of `CCNc1ccc(-c2nn3c(c2C(=O)N[C@H]2N=C(c4ccccc4)c4ccccc4NC2=O)OC(C)CCC3)c(F)n1` (single isomer, unassigned) [Example 10-2, (5S*)-2-[6-(ethylamino)-2-fluoropyridin-3-yl]-5-methyl-N-[(3S)-2-oxo-5-phenyl-1,3-dihydro-1,4-benzodiazepin-3-yl]-5,6,7,8-tetrahydropyrazolo[5,1-b][1,3]oxazepine-3-carboxamide] are 24 nM and over 25000 nM.
In the same order, the values of `CC(C)Nc1ccc(-c2nn3c(c2C(=O)N[C@H]2N=C(c4ccccc4)c4ccccc4NC2=O)OC(C)CCC3)c(F)n1` (single isomer, unassigned) [Example 12-2, (5S*)-2-[2-fluoro-6-(propan-2-ylamino)pyridin-3-yl]-5-methyl-N-[(3S)-2-oxo-5-phenyl-1,3-dihydro-1,4-benzodiazepin-3-yl]-5,6,7,8-tetrahydropyrazolo[5,1-b][1,3]oxazepine-3-carboxamide] are 33 nM and over 25000 nM.
In the same order, the values of `CC(C)Nc1ccc(-c2nn3c(c2C(=O)N[C@H]2N=C(c4ccccc4)c4cccc(F)c4NC2=O)OC(C)CCC3)c(F)n1` (single isomer, unassigned) [Example 13-2, (5S*)-N-[(3S)-9-fluoro-2-oxo-5-phenyl-1,3-dihydro-1,4-benzodiazepin-3-yl]-2-[2-fluoro-6-(propan-2-ylamino)pyridin-3-yl]-5-methyl-5,6,7,8-tetrahydropyrazolo[5,1-b][1,3]oxazepine-3-carboxamide] are 23 nM and over 25000 nM.
Take `CC1CCCOc2c(C(=O)NC3N=C(c4ccccc4)c4ccccc4NC3=O)c(-c3ccccc3F)nn21` (single isomer, unassigned) [Example 14-2, (8S*)-2-(2-Fluorophenyl)-8-methyl-N-(2-oxo-5-phenyl-1,3-dihydro-1,4-benzodiazepin-3-yl)-5,6,7,8-tetrahydropyrazolo[5,1-b][1,3]oxazepine-3-carboxamide]: in data set [1], the EC50 was determined as 60 nM. For the same compound, the CC50 in data set [2] is over 25000 nM.
The matching figures for `CC1CCCOc2c(C(=O)NC3N=C(c4ccccc4)c4cccc(F)c4NC3=O)c(-c3ccccc3F)nn21` (single isomer, unassigned) [Example 15-2, (8S*)-N-(9-fluoro-2-oxo-5-phenyl-1,3-dihydro-1,4-benzodiazepin-3-yl)-2-(2-fluorophenyl)-8-methyl-5,6,7,8-tetrahydropyrazolo[5,1-b][1,3]oxazepine-3-carboxamide]: 37 nM and over 25000 nM.
The matching figures for `CC1CCCn2nc(-c3ccc(F)cc3F)c(C(=O)N[C@H]3N=C(c4ccccc4)c4ccccc4NC3=O)c2O1` (single isomer, unassigned) [Example 16-2, (5S*)-2-(2,4-difluorophenyl)-5-methyl-N-[(3S)-2-oxo-5-phenyl-1,3-dihydro-1,4-benzodiazepin-3-yl]-5,6,7,8-tetrahydropyrazolo[5,1-b][1,3]oxazepine-3-carboxamide]: 39 nM and over 25000 nM.
In data set [1] (setting [4]), `O=C(N[C@H]1N=C(c2ccccc2)c2cccc(F)c2NC1=O)c1c(-c2ccccc2F)nn2c1SCCCC2` [Example 20, N-[(3S)-9-fluoro-2-oxo-5-phenyl-2,3-dihydro-1H-1,4-benzodiazepin-3-yl]-2-(2-fluorophenyl)-5H,6H,7H,8H-pyrazolo[3,2-b][1,3]thiazepine-3-carboxamide] gave an EC50 of 34 nM. The CC50 in data set [3] was over 25000 nM.
In the same order, the values of `O=C(N[C@H]1N=C(c2ccccc2)c2cccc(F)c2NC1=O)c1c(-c2ccccc2F)nn2c1S(=O)(=O)CCCC2` [Example 21, N-[(3S)-9-fluoro-2-oxo-5-phenyl-2,3-dihydro-1H-1,4-benzodiazepin-3-yl]-2-(2-fluorophenyl)-4,4-dioxo-5H,6H,7H,8H-4λ^6-pyrazolo[3,2-b][1,3]thiazepine-3-carboxamide] are 377 nM and over 25000 nM.
Turning to `CCc1ccc(-c2nn3c(c2C(=O)N[C@H]2N=C(c4ccccc4)c4cccc(F)c4NC2=O)OCC(F)(F)CC3)cn1` [Example 22, 2-(6-Ethylpyridin-3-yl)-6,6-difluoro-N-[(3S)-9-fluoro-2-oxo-5-phenyl-2,3-dihydro-1H-1,4-benzodiazepin-3-yl]-5H,6H,7H,8H-pyrazolo[3,2-b][1,3]oxazepine-3-carboxamide], in data set [1] (setting [4]), the EC50 was 103 nM. Besides, in data set [3], the CC50 is over 25000 nM.
With `CC(C)Nc1ccc(-c2nn3c(c2C(=O)N[C@H]2N=C(c4ccccc4)c4cccc(F)c4NC2=O)OCC(F)(F)CC3)cn1` [Example 23, 6,6-Difluoro-N-[(3S)-9-fluoro-2-oxo-5-phenyl-2,3-dihydro-1H-1,4-benzodiazepin-3-yl]-2-{6-[(propan-2-yl)amino]pyridin-3-yl}-5H,6H,7H,8H-pyrazolo[3,2-b][1,3]oxazepine-3-carboxamide], the EC50 in data set [1] (setting [4]) came out at 52 nM. Further, the half-maximal cytotoxic concentration (CC50) in data set [3] is over 25000 nM.
The matching figures for `CCC1CCCn2nc(-c3ccccc3F)c(C(=O)N[C@H]3N=C(c4ccccc4)c4ccccc4NC3=O)c2O1` (stereo partly drawn) [Example 24, 5-Ethyl-2-(2-fluorophenyl)-N-[(3S)-2-oxo-5-phenyl-1,3-dihydro-1,4-benzodiazepin-3-yl]-5,6,7,8-tetrahydropyrazolo[5,1-b][1,3]oxazepine-3-carboxamide]: 100 nM and over 25000 nM.
For `CCC1CCCn2nc(-c3ccccc3F)c(C(=O)N[C@H]3N=C(c4ccccc4)c4cccc(F)c4NC3=O)c2O1` (some centres unmarked) [Example 25, 5-Ethyl-N-[(3 S)-9-fluoro-2-oxo-5-phenyl-1,3-dihydro-1,4-benzodiazepin-3-yl]-2-(2-fluorophenyl)-5,6,7,8-tetrahydropyrazolo[5,1-b][1,3]oxazepine-3-carboxamide], the response in data set [1] (setting [4]) was half-maximal at 83 nM (EC50). Also, the 50% cytotoxic concentration (CC50) in data set [3] is over 25000 nM.
In the same order, the values of `CCC1CCCn2nc(-c3ccc(C)nc3)c(C(=O)N[C@H]3N=C(c4ccccc4)c4ccccc4NC3=O)c2O1` (stereo partly drawn) [Example 26, 5-Ethyl-2-(6-methylpyridin-3-yl)-N-[(3S)-2-oxo-5-phenyl-1,3-dihydro-1,4-benzodiazepin-3-yl]-5,6,7,8-tetrahydropyrazolo[5,1-b][1,3]oxazepine-3-carboxamide] are 590 nM and over 25000 nM.
The matching figures for `CCC1CCCn2nc(-c3ccc(C)nc3)c(C(=O)N[C@H]3N=C(c4ccccc4)c4cccc(F)c4NC3=O)c2O1` (some centres unmarked) [Example 27, 5-Ethyl-N-[(3 S)-9-fluoro-2-oxo-5-phenyl-1,3-dihydro-1,4-benzodiazepin-3-yl]-2-(6-methylpyridin-3-yl)-5,6,7,8-tetrahydropyrazolo[5,1-b][1,3]oxazepine-3-carboxamide]: 394 nM and over 25000 nM.
In the same order, the values of `CS(=O)(=O)c1ccc(-c2nn3c(c2C(=O)N[C@H]2N=C(c4ccccc4)c4cccc(F)c4NC2=O)OC2CCC3C2)c(F)c1` (stereo partly drawn) [Example 32, 4-(2-Fluoro-4-methylsulfonylphenyl)-N-[(3S)-9-fluoro-2-oxo-5-phenyl-1,3-dihydro-1,4-benzodiazepin-3-yl]-7-oxa-2,3-diazatricyclo[6.2.1.02,6]undeca-3,5-diene-5-carboxamide] are 23 nM and over 25000 nM.
